The values below come from article PMC9784689, “Bioactivity Profiling of In Silico Predicted Linear Toxins from the Ants Myrmica rubra and Myrmica ruginodis” (Toxins, 2022).

Data set [1] concerns Influenza B/Massachusetts/71 (Yamagata lineage) in MDCK II cells. The data set is classed as cell-based, influenza B virus. The following applies: B/Mass, 100 µM peptides, 48 h.
In data set [2] the test system is Influenza B/Malaysia/2506/04 (Victoria lineage) in MDCK II cells. In kind it is cell-based, influenza B virus. The following applies: B/Mal, 100 µM peptides, 48 h.
The subject of data set [3] is Influenza A/Hamburg/5/09 (H1N1) in MDCK II cells. The data set is classed as cell-based, influenza A virus. To be noted: 100 µM peptides, 48 h.
Data set [4] relates to Influenza A/Hessen/1/03 (H3N2) in MDCK II cells. In kind it is cell-based, influenza A virus. To be noted: 100 µM peptides, 48 h.
Data set [5] concerns Escherichia coli, Staphylococcus aureus, Staphylococcus epidermidis, Pseudomonas aeruginosa (strains 50071 and 1117), Micrococcus luteus, Listeria …. Briefly: Antibacterial activity, statements for the whole panel of seven strains. In kind it is cell-based. The following applies: 100 µM, after 48 h, MH II medium, 37 °C, OD600, triplicate.
Data set [6] has as its system larvae of the greater wax moth (Galleria mellonella). Briefly: Insecticidal activity, injection into larvae. The following applies: G. mellonella larvae, 10 specimens. The data set is classed as in vivo.
Data set [7] has as its system MDCK II cells. To be noted: 48 h; for Normalized data, cell viability: MDCK II, 100 µM peptides, CellTiter-Glo, normalized to DMSO control = 100% viability. (In general: Cellular ATP, detected with luciferase, serves as a proxy for viable cell number.)

Where two headings read alike, the source gives them in different places. No end group written: not given here.

On to “IDVYFILHLP-NH2 (C-terminus assumed) [U-MYRTX-Mrug4b]”, for which the “Normalized to Aprotinin =1 (protection)” value in data set [1] (replicate 1) amounted to 0.01102; in data set [1] (replicate 2), 0.01257; in data set [1] (replicate 3), 0.01675; in data set [2] (replicate 1), 0.03762; in data set [2] (replicate 2) it was 0.02626; in data set [2] (replicate 3) it was 0.09882. The “Normalized to Aprotinin =1 (protection)” value in data set [3] (replicate 1) is -0.007928; in data set [3] (replicate 3) it was 0.0256; in data set [4] (replicate 1), 0.06728; in data set [4] (replicate 2), 0.05537; in data set [4] (replicate 3), 0.07138.

Regarding “IDPKVLESLA-NH2 (C-terminus assumed) [U-MYRTX-Mrug2a]”, the “Normalized to Aprotinin =1 (protection)” value in data set [1] (replicate 1) was determined as 0.01558; in data set [1] (replicate 2), 0.02606; in data set [1] (replicate 3), 0.02908; in data set [2] (replicate 1), 0.03996; in data set [2] (replicate 2), 0.0417; in data set [2] (replicate 3), 0.07904. In addition, the “Normalized to Aprotinin =1 (protection)” value was -0.00333 in data set [3] (replicate 1); 0.002305 in data set [3] (replicate 2); -0.007789 in data set [3] (replicate 3); 0.06351 in data set [4] (replicate 1); 0.02791 in data set [4] (replicate 2); 0.04387 in data set [4] (replicate 3). For the same compound, the “Inhibition of bacterial growth, in words” value in data set [5] is “no significant inhibition of bacterial growth”.

With “IDPKLLESLA-NH2 (C-terminus assumed) [U-MYRTX-Mrub2a]”, the “Normalized to Aprotinin =1 (protection)” value turned out to be 0.008341 in data set [1] (replicate 1); 0.1091 in data set [1] (replicate 2); 0.1749 in data set [1] (replicate 3); 0.08852 in data set [2] (replicate 1); 0.1729 in data set [2] (replicate 2); 0.1453 in data set [2] (replicate 3). The “Normalized to Aprotinin =1 (protection)” value in data set [3] (replicate 1) is 0.07403; in data set [3] (replicate 2) it was 0.07306; in data set [3] (replicate 3), 0.0814; in data set [4] (replicate 1), 0.09958; in data set [4] (replicate 2), 0.07892; in data set [4] (replicate 3) it was 0.1212. Moreover, the “Inhibition of bacterial growth, in words” value in data set [5] is “no significant inhibition of bacterial growth”.

Take “IDSDALKSLQ-NH2 (C-terminus assumed) [U-MYRTX-Mrub4a/Mrug7a]”: the “Normalized to Aprotinin =1 (protection)” value is on record as 0.01827 in data set [1] (replicate 1); 0.02714 in data set [1] (replicate 2); 0.01553 in data set [1] (replicate 3); 0.06158 in data set [2] (replicate 1); 0.1088 in data set [2] (replicate 2); 0.1041 in data set [2] (replicate 3). Further, the “Normalized to Aprotinin =1 (protection)” value in data set [3] (replicate 1) came out at 0.0395; in data set [3] (replicate 2), 0.05779; in data set [3] (replicate 3), 0.05022; in data set [4] (replicate 1), 0.05779; in data set [4] (replicate 2), 0.05634; in data set [4] (replicate 3), 0.06216. Also, in data set [5], the “Inhibition of bacterial growth, in words” value is “no significant inhibition of bacterial growth”. This compound gave an Injected larvae surviving in data set [6] (injection of 5 µL of 10 mM stock in DMSO/water, at least 72 h) of 80%.

For “KDSDSLKSFQ-NH2 (C-terminus assumed) [U-MYRTX-Mrug6a]”, the “Normalized to Aprotinin =1 (protection)” value was found to be 0.007926 in data set [1] (replicate 1); 0.0129 in data set [1] (replicate 2); 0.01821 in data set [1] (replicate 3); 0.0613 in data set [2] (replicate 1); 0.07745 in data set [2] (replicate 2); 0.114 in data set [2] (replicate 3). In addition, the “Normalized to Aprotinin =1 (protection)” value in data set [3] (replicate 1) was found to be 0.02785; in data set [3] (replicate 2), 0.0161; in data set [3] (replicate 3) it was 0.02305; in data set [4] (replicate 1), 0.08543; in data set [4] (replicate 2), 0.06156; in data set [4] (replicate 3), 0.07217. Moreover, the “Inhibition of bacterial growth, in words” value in data set [5] was “no significant inhibition of bacterial growth”.

For the compound `CCO` [ethanol, reference compound], the “Larvae killed (mortality)” value in data set [6] (injection (peptides 5 µL of 10 mM stock; ethanol control 10 µL), 72 h) is on record as 70%.

In the case of “IDSKAIKSLQ-NH2 (C-terminus assumed) [U-MYRTX-Mrub4b/Mrug3a]”, the “Normalized to Aprotinin =1 (protection)” value is 0.03499 in data set [1] (replicate 1); 0.02676 in data set [1] (replicate 2); 0.02366 in data set [1] (replicate 3); 0.05327 in data set [2] (replicate 1); 0.08884 in data set [2] (replicate 2); 0.1216 in data set [2] (replicate 3). Besides, the “Normalized to Aprotinin =1 (protection)” value in data set [3] (replicate 1) was found to be 0.02574; in data set [3] (replicate 2), 0.02301; in data set [3] (replicate 3), 0.02813; in data set [4] (replicate 1) it was 0.06966; in data set [4] (replicate 2), 0.08008; in data set [4] (replicate 3), 0.07436. Also, the “Inhibition of bacterial growth, in words” value in data set [5] was “no significant inhibition of bacterial growth”.

Take “IDRSEKTERE-NH2 (C-terminus assumed) [U-MYRTX-Mrub3a]”: the “Normalized to Aprotinin =1 (protection)” value is listed as 0.02341 in data set [1] (replicate 1); 0.02308 in data set [1] (replicate 2); 0.03331 in data set [1] (replicate 3); 0.04706 in data set [2] (replicate 1); 0.1383 in data set [2] (replicate 2); 0.1034 in data set [2] (replicate 3). For the same compound, the “Normalized to Aprotinin =1 (protection)” value in data set [3] (replicate 1) came to 0.05191; in data set [3] (replicate 2), 0.05042; in data set [3] (replicate 3), 0.0422; in data set [4] (replicate 1), 0.1064; in data set [4] (replicate 2) it was 0.05676; in data set [4] (replicate 3) it was 0.1027. For the same compound, the “Inhibition of bacterial growth, in words” value in data set [5] is listed as “no significant inhibition of bacterial growth”.

As for aprotinin [reference compound], the “Normalized to Aprotinin =1 (protection)” value in data set [1] (replicate 1), in data set [1] (replicate 2), in data set [1] (replicate 3), in data set [2] (replicate 1), in data set [2] (replicate 2) and in data set [2] (replicate 3) was 1 each time. The “Normalized to Aprotinin =1 (protection)” value in data set [3] (replicate 1), in data set [3] (replicate 2), in data set [3] (replicate 3), in data set [4] (replicate 1), in data set [4] (replicate 2) and in data set [4] (replicate 3) was 1 throughout.

Regarding `C[C@H](CCC(=O)O)C[C@H](C)C[C@H](C)C(=O)/C=C(\O)[C@H](C)C[C@H](C)C/C=C/[C@@H](C)[C@@H](O)[C@@H](C)[C@@H](O)C[C@@H]1CC[C@@](C)([C@H]2CC[C@@](C)([C@@H](C)O)O2)O1` [Ionomycin, ionomycin, reference compound], the “Cytotoxicity (cell viability), in words” value in data set [7] (MDCK II cells, 100 µM, 1% DMSO, CellTiter-Glo luminescence, triplicate) is on record as “high cytotoxicity”. In addition, the figures for the “Normalized data, cell viability” value in data set [7] (replicate 1), in data set [7] (replicate 2) and in data set [7] (replicate 3) were 0.2057%, 0.1877% and 0.1629%, respectively.
